For 2 compounds, Activity, IC50 and inhibition results are on record in ChEMBL document CHEMBL5120965, “Moroidin, a Cyclopeptide from the Seeds of Celosia cristata That Induces Apoptosis in A549 Human Lung Cancer Cells” (J Nat Prod, 2022).

Test [1] has as its system A549. Nature of the test: Induction of microtubule depolymerization in human A549 cells assessed as occurence of cell shrinkage at 2.5 uM measured after 48 hrs by DAPI staining based immunofluorescence assay. The test is classed as functional.
Test [2] deals with A549. Kind of test: Induction of microtubule depolymerization in human A549 cells assessed as occurence of rounded cells at 2.5 uM measured after 48 hrs by DAPI staining based immunofluorescence assay. Type of test: functional, cell-based.
In test [3] the test system is A549. Kind of test: Induction of microtubule depolymerization in human A549 cells assessed as reduction in tubulin protein level at 2.5 uM by Western blot analysis. Type of test: functional. More on the design: scale not given: the % may be the effect or the level left.
For test [4], the system named is A549. Kind of test: Antiproliferative activity against human A549 cells assessed as reduction in cell viability at 0.01 to 100 uM measured after 24 to 72 hrs by MTT assay. Conditions: dose 0.01-100 µM, time 24-72 hrs. Type of test: functional, cell-based.
The subject of test [5] is A549. Nature of the test: Cytotoxicity against human A549 cells assessed as reduction in cell viability incubated for 72 hrs by MTT assay. To be noted: A549, 72 h. The test is classed as functional, cell-based.
The next test relates to NCI-H1299. Nature of the test: Cytotoxicity against human H1299 cells assessed as reduction in cell viability incubated for 72 hrs by MTT assay. Type of test: functional, cell-based. To be noted: NCI-H1299, 72 h.
In another test the test system is U-87 MG. Kind of test: Cytotoxicity against human U87 cells assessed as reduction in cell viability incubated for 72 hrs by MTT assay. Type of test: functional, cell-based, U-87MG ATCC.
Another test has as its system U-251. Nature of the test: Cytotoxicity against human U-251 cells assessed as reduction in cell viability incubated for 72 hrs by MTT assay. The test is classed as functional, cell-based. Conditions: U-251, 72 h.
The test system of the next test is HCT-116. Kind of test: Cytotoxicity against human HCT-116 cells assessed as reduction in cell viability incubated for 72 hrs by MTT assay. Type of test: functional, cell-based. Conditions: HCT-116, 72 h.
Test [6] relates to MCF7. Kind of test: Cytotoxicity against human MCF7 cells assessed as reduction in cell viability incubated for 72 hrs by MTT assay. Conditions: MCF7, 72 h. The test is classed as functional, cell-based.
The test system of test [7] is A549. Kind of test: Inhibition of colony formation in human A549 cells up to 20 uM measured after 10 days by crystal violet staining based assay. The test is classed as functional, cell-based. Conditions: dose 1.25-20 µM, time 10.0 day, DDE = dose-dependent effect.
For test [8], the system named is MCF7. Kind of test: Inhibition of colony formation in human MCF7 cells measured after 10 days by crystal violet staining based assay. Type of test: functional, cell-based. To be noted: dose 1.25-20 µM, time 10.0 day, DDE = dose-dependent effect.
In test [9] the test system is A549. Kind of test: Induction of microtubule depolymerization in human A549 cells assessed as reduction in microtubule network measured after 48 hrs by DAPI staining based immunofluorescence assay. The test is classed as functional, cell-based. To be noted: dose 2.5-5 µM.
The subject of test [10] is A549. Nature of the test: Induction of microtubule depolymerization in human A549 cells assessed as fragmentation of microtubule network measured after 48 hrs by DAPI staining based immunofluorescence assay. Type of test: functional, cell-based. To be noted: dose 2.5-5 µM.
The subject of test [11] is A549. Kind of test: Induction of cell cycle arrest in human A549 cells assessed as increase in accumulation of cells at G2/M phase at 5 to 20 uM measured after 48 hrs by […]propidium iodide staining based flow cytometry analysis (reference value: 8.33%). The test is classed as functional. Conditions: dose 5-20 µM.
Test [12] relates to A549. Kind of test: Induction of cell cycle arrest in human A549 cells assessed as decrease in ratio of cells at G1 phase measured after 48 hrs by […]propidium iodide staining based flow cytometry analysis. Conditions: dose 5-20 µM, DDE = dose-dependent effect. The test is classed as functional.
The subject of test [13] is A549. Nature of the test: Induction of cell apoptosis in human A549 cells assessed as increase in apoptosis rate at 5 uM measured after 48 hrs by annexinV-FITC/propidium iodide staining based flow cytometry analysis (reference value: 3.27%). The test is classed as functional.
Test [14] relates to A549. Nature of the test: Induction of cell apoptosis in human A549 cells assessed as increase in apoptosis rate at 10 uM measured after 48 hrs by annexinV-FITC/propidium iodide staining based flow cytometry analysis (reference value: 3.27%). Type of test: functional.
The test system of test [15] is A549. Nature of the test: Induction of cell apoptosis in human A549 cells assessed as increase in apoptosis rate at 20 uM measured after 48 hrs by annexinV-FITC/propidium iodide staining based flow cytometry analysis (reference value: 3.27%). Type of test: functional.
The subject of test [16] is A549. Kind of test: Induction of cell apoptosis in human A549 cells assessed as increase in pro-caspase 3 level measured after 48 hrs by Western blot analysis. The test is classed as functional, cell-based. Conditions: dose 5-20 µM, DDE = dose-dependent effect.
The test system of test [17] is A549. Nature of the test: Induction of cell apoptosis in human A549 cells assessed as increase in pro-caspase 9 level measured after 48 hrs by Western blot analysis. The test is classed as functional, cell-based. Conditions: dose 5-20 µM, DDE = dose-dependent effect.
Test [18] concerns A549. Kind of test: Induction of cell apoptosis in human A549 cells assessed as increase in PARP level measured after 48 hrs by Western blot analysis. Type of test: functional, cell-based. Conditions: dose 5-20 µM, DDE = dose-dependent effect.
Test [19] relates to A549. Kind of test: Induction of cell apoptosis in human A549 cells assessed as increase in cleaved-caspase 3 level measured after 48 hrs by Western blot analysis. Type of test: functional, cell-based. To be noted: dose 5-20 µM, DDE = dose-dependent effect.
Test [20] has as its system A549. Nature of the test: Induction of cell apoptosis in human A549 cells assessed as increase in cleaved-caspase 9 level measured after 48 hrs by Western blot analysis. The test is classed as functional, cell-based. To be noted: dose 5-20 µM, DDE = dose-dependent effect.
The test system of test [21] is A549. Kind of test: Induction of cell apoptosis in human A549 cells assessed as increase in cleaved PARP level measured after 48 hrs by Western blot analysis. Conditions: dose 5-20 µM, DDE = dose-dependent effect. The test is classed as functional, cell-based.
Test [22] deals with A549. Kind of test: Induction of cell apoptosis in human A549 cells assessed as increase in Bax expression level at 5 to 20 uM measured after 48 hrs by Western blot analysis. The test is classed as functional, cell-based. To be noted: dose 5-20 µM.
For test [23], the system named is A549. Kind of test: Induction of cell apoptosis in human A549 cells assessed as decrease in Bcl-2 expression level at 5 to 20 uM measured after 48 hrs by Western blot analysis. Type of test: functional, cell-based. Conditions: dose 5-20 µM.
Test [24] relates to A549. Nature of the test: Induction of cell apoptosis in human A549 cells assessed as increase in Bax/Bcl-2 ratio at 5 to 20 uM measured after 48 hrs by Western blot analysis. Conditions: dose 5-20 µM. The test is classed as functional, cell-based.
The subject of test [25] is A549. Nature of the test: Induction of cell apoptosis in human A549 cells assessed as reduction in AKT phosphorylation at 5 to 20 uM measured after 48 hrs by Western blot analysis. Conditions: dose 5-20 µM. Type of test: functional, cell-based.
The test system of test [26] is A549. Kind of test: Induction of cell apoptosis in human A549 cells assessed as reduction in AKT expression at 5 to 20 uM measured after 48 hrs by Western blot analysis. The test is classed as functional, cell-based. Conditions: dose 5-20 µM.
Test [27] deals with A549. Nature of the test: Antimigratory activity against human A549 cells assessed as migration of cells into scratch area at 0.5 uM measured after 48 hrs by scratch assay based microscopic analysis (reference value: 85.15%). The test is classed as functional.
For test [28], the system named is A549. Nature of the test: Antimigratory activity against human A549 cells assessed as migration of cells into scratch area at 1 uM measured after 48 hrs by scratch assay based microscopic analysis (reference value: 85.15%). The test is classed as functional.
The subject of test [29] is A549. Kind of test: Antimigratory activity against human A549 cells assessed as migration of cells into scratch area at 2 uM measured after 48 hrs by scratch assay based microscopic analysis (reference value: 85.15%). Type of test: functional.
For test [30], the system named is A549. Kind of test: Antimigratory activity against human A549 cells assessed as reduction in number of migrated cells measured after 48 hrs by transwell assay based microscopic analysis. Type of test: functional, cell-based. Conditions: dose 0.5-2 µM, DDE = dose-dependent effect.
Test [31] relates to A549. Nature of the test: Antiinvasive activity against human A549 cells assessed as reduction in number of invasion cells measured after 48 hrs by transwell assay based microscopic analysis. Type of test: functional, cell-based. To be noted: dose 0.5-2 µM, DDE = dose-dependent effect.

The source made the active and inactive calls. The calls are words filed in the database; no cut-off is given here.

On to `COc1cc2c(c(OC)c1OC)-c1ccc(OC)c(=O)cc1[C@@H](NC(C)=O)CC2` [COLCHICINE], for which the outcome in the test with A549 [1], in the test on A549 [2] and with A549 [4] was Active. The Activity in the test with A549 [3] stood at 63%.

Turning to `CC(C)C[C@@H]1NC(=O)[C@@H](NC(=O)[C@@H]2CCC(=O)N2)[C@H](C(C)C)c2ccc3c4c([nH]c3c2)-n2cnc(c2)C[C@@H](C(=O)O)NC(=O)CNC(=O)[C@H](CCCNC(=N)N)NC(=O)[C@H](C4)NC(=O)[C@H](C(C)C)NC1=O`, the concentration for half-maximal inhibition (IC50) in the test with A549 [5] was 3.2 µM; with NCI-H1299, 8.3 µM; in the test on U-87 MG, 9.6 µM; in the test with U-251, 5.2 µM; in the test on HCT-116, 9.9 µM; with MCF7 [6] it was > 10 µM. The inhibition entry in the test on A549 [7] and in the test on MCF7 [8] was “Dde” in each case. Moreover, the result in the test on A549 [9], with A549 [10], in the test on A549 [22], with A549 [23], with A549 [24] and in the test with A549 [25] was Active. The outcome in the test on A549 [26] was Active. Further, the Activity with A549 [3] is 20%; in the test on A549 [11], 36.35%; in the test on A549 [12] it was “Dde”; in the test on A549 [13], 6.14%; with A549 [14] it was 11.4%; with A549 [15] it was 20.62%. In addition, the Activity entry with A549 [16], with A549 [17], in the test on A549 [18], with A549 [19], in the test on A549 [20] and in the test on A549 [21] was “Dde” in each case. In addition, the Activity was 60.84% in the test with A549 [27]; 40.22% in the test with A549 [28]; 21.92% in the test on A549 [29]; “Dde” in the test on A549 [30]; “Dde” in the test with A549 [31].
